Measured values published in patent US9517989B2, “2-cycloalkyl resorcinol cannabinergic ligands” (priority 2012, dated 2016).

Columns and labels:
[1] = target: CB2 receptor (UniProt P47936); assay: CB2 receptor binding affinity (Ki); conditions: read-out: CB2 receptor Ki
Method: Some disclosed compounds were tested for CB1 and CB2 receptor binding affinity (Tables 1, 2, 3, 4, 5, 6). As used herein “binding affinity” is represented by the Ki value. The Ki value is the affinity constant and describes the affinity of the compound for the receptor. The lower the Ki value, the higher the affinity of the compound for the receptor. A detailed description of the methods used to test “binding affinity” of compounds is given in Makriyannis, et al., US 2007, 0135388 and in Papahatjis, et al. J. Med. Chem. (2007) 4048, the content of each of which is hereby incorporated by reference.

[2] = test system: C57BL6/J mice; assay: Analgesia assay (tail immersion / tail withdrawal test); assay type: in vivo
Method: (§1) Some of the disclosed compounds were tested in vivo using two well defined rodent assays for cannabinergic activity, the analgesia and the hypothermia assays. The analgesia assay (tail immersion test) determines the ability of the test compound to activate cannabinergic signaling, through modulation of cannabinoid receptors, and thereby reduce nociceptive pain. The hypothermia test determines the ability of a test compound to act as a central CB1 agonist and decrease the body temperature. […] The details of both assays are described below.
C57BL6/J mice (Jackson Laboratories, Bar Harbor Me.) were single housed at least 1 h before start of experiment. Food and water are removed immediately before the first injection.
Route of administration=i.p. Volume=1 mL/100 g body weight.
Tail withdrawal test: 52° C. water bath (use bags). • a. Bag is made of stapled surgery sheets to form a small pocket the size of a mouse. • b. […] The tip of the mouse's tail is dipped into the warm water, with 1 cm submerged. • d. […] B. Hypothermia Assay

[3] = target: T1, CB1 (Rattus norvegicus, UniProt P20272); assay: CB1 receptor binding affinity (Ki)
T1 sequence (P20272 whole entry): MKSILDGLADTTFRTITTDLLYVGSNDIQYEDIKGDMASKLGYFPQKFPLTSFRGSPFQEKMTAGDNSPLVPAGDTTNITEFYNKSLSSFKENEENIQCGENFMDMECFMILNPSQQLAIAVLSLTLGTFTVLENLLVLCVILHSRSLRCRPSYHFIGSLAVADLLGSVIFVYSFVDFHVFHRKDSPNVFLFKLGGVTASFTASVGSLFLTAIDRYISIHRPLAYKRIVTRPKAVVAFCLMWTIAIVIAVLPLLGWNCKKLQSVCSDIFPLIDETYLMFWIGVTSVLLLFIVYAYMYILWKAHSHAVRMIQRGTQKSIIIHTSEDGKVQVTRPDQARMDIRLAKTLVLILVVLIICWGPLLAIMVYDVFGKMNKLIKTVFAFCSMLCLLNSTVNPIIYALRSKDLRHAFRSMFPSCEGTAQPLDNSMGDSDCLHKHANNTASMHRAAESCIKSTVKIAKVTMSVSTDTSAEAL
Method: Some disclosed compounds were tested for CB1 and CB2 receptor binding affinity (Tables 1, 2, 3, 4, 5, 6). As used herein “binding affinity” is represented by the Ki value. The Ki value is the affinity constant and describes the affinity of the compound for the receptor. […] A detailed description of the methods used to test “binding affinity” of compounds is given in Makriyannis, et al., US 2007, 0135388 and in Papahatjis, et al. J. Med. Chem. (2007) 4048, the content of each of which is hereby incorporated by reference.

[4] = target: T1, CB1; assay: cyclic adenosine monophosphate (cAMP) assay at CB1; assay type: cell-based
Method: (§2) Functional characterization of some of the disclosed compounds was performed by using the cyclic adenosine monophosphate (cAMP) assay. The functional potency of the compound is represented by the EC50 value. The lower the EC50 value, the higher the functional potency. A detailed description of the cyclic adenosine monophosphate (cAMP) assay is given in Nikas et al. J. Med. Chem. (2010) 6996.

[5] = target: CB2 (Homo sapiens, UniProt P34972); assay: cyclic adenosine monophosphate (cAMP) assay at CB2; assay type: cell-based
CB2, sequence (P34972 whole entry, species assumed): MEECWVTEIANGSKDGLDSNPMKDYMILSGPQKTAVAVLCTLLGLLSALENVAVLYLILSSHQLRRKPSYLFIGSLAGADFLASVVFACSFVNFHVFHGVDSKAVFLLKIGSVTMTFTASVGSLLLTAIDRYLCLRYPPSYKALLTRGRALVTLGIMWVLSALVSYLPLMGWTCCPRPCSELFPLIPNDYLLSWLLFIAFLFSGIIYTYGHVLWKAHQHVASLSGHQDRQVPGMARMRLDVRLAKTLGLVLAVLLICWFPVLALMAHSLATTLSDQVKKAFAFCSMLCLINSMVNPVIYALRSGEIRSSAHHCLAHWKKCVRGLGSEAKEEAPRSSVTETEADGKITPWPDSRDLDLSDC
Method: as §2

[6] = test system: C57BL/6 J mice; assay: Hypothermia assay (rectal temperature); assay type: in vivo; conditions: dose of 3 mg/kg, FIG. 2
Method: as §1
C57BL/6 J mice (Charles River Breeding Laboratories, Wilmington, Mass., USA) weighing 30 to 35 g were group housed five to a cage, in a temperature-controlled (20° C.) animal facility. Mice were habituated to the animal facility for at least 1 week prior to experiments with a 12-h light/dark cycle (lights are on at 7:00 AM). Mice were given free access to food and water. Experimentally naïve mice were used for each dose condition, and the mice were tested during the light phase.
Rectal temperature was measured in mice using a rectal probe of a digital laboratory thermometer, RET-3-ISO, type T thermocouple (Physitemp Instruments Inc, Clifton, N.J.). The lubricated probe was inserted approximately 2.0 cm into the rectum for approximately 30 sec, prior to each recording. […]

[7] = read-out: Functional Potency (EC50)

Row | Compound | Ki [1] [nM] | antinociception (analgesia) ([2]; dose of 3 mg/Kg, FIG. 1) | Ki [3] [nM] | Functional Activity [4] | Emax ([4]; read-out: % Efficacy) [%] | EC50 [4, 7] [nM] | Functional Activity [5] | Emax ([5]; read-out: % Efficacy) [%] | EC50 [5, 7] [nM] | centrally mediated hypothermia [6] | potency in the analgesia assay relative to compound 41 (times less potent) ([2]; same test as compound 41)
1 | CC1=C[C@H](c2c(O)cc(C3(CCCCCC#N)CCCC3)cc2O)[C@@H]2C[C@H]1C2(C)C [Compound 41, (+)-2-[(1R,4S,5S)-2,6,6-trimethylbicylco[3.1.1]hept-2-en-4-yl]-5-[(5-cyanopentyl)cyclopentyl]resorcinol] | 0.8 | maximum possible effect | 2.6 |  |  |  |  |  |  |  | 
2 | C=C(C)[C@H]1CCC(CO)=C[C@@H]1c1c(O)cc(C(C)(C)CCCCN2CCOCC2)cc1O [Compound 71, 2-[(1S,6S)-3-(Hydroxymethyl)-6-(1-methylethenyl)-2-cyclohexen-1-yl]-5-(6-morpholino-2-methylhexane-2-yl)resorcinol] | 3 |  | 6 | Agonist at CB1 | 88 | 1.4 | Partial agonist at CB2 | 42 | 0.4 | does not show significant hypothermia | 
3 | (−)-Δ^9-tetrahydrocannabinol [(−)-Δ^9-THC, reference compound] |  |  |  |  |  |  |  |  |  |  | approximately 10 times
